Patent US8952024B2, “Herbicidal pyrimidone derivatives” (E I du Pont de Nemours and Company, priority 2009, dated 2015)

Columns and labels:
Assay in all cases: Test D pre-/postemergence plant response
Assay type in all cases: in vivo
[1] = test system: field bindweed (Convolvulus arvensis)
Method in brief: (§1)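 Pre + post applications; loam/sand soil; solvent + surfactant vehicle; post-em plants 1- to 4-leaf (2–18 cm); greenhouse 14–21 d; visual score 0 (none) to 100 (full control) vs untreated.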

[2] = test system: johnsongrass (Sorghum halepense)
Method in brief: as §1

[3] = test system: naked crabgrass (Digitaria nuda)
Method in brief: as §1

[4] = test system: nutsedge (purple nutsedge, Cyperus rotundus)
Method in brief: as §1

[5] = test system: itchgrass (Rottboellia cochinchinensis)
Method in brief: as §1

[6] = test system: barnyardgrass (Echinochloa crus-galli)
Method in brief: as §1

[7] = test system: sowthistle (common sowthistle, Sonchus oleraceous)
Method in brief: as §1

[8] = test system: spanishneedles (Bidens bipinnata)
Method in brief: as §1

[9] = test system: bermudagrass (Cynodon dactylon)
Method in brief: as §1

[10] = test system: mallow (common mallow, Malva sylvestris)
Method in brief: as §1

[11] = test system: guineagrass (Panicum maximum)
Method in brief: as §1

[12] = test system: Italian ryegrass (Lolium multiflorum)
Method in brief: as §1

[13] = test system: groundsel (common groundsel, Senecio vulgaris); details: Postemergence
Method in brief: as §1

[14] = test system: green foxtail (Setaria viridis)
Method in brief: as §1

[15] = test system: prickly sida (Sida spinosa)
Method in brief: as §1

[16] = Postemergence, 16 g ai/ha, scale 0 to 100
[17] = Postemergence, 31 g ai/ha, scale 0 to 100
[18] = Postemergence, 62 g ai/ha, scale 0 to 100 (0 no effect, 100 complete control)
[19] = Preemergence, 16 g ai/ha, scale 0 to 100, 0 no effect, 100 complete control
[20] = Preemergence, 31 g ai/ha, scale 0 to 100 (0 no effect, 100 complete control)
[21] = Preemergence, 62 g ai/ha, scale 0 to 100
[22] = Preemergence, 125 g ai/ha, scale 0 to 100
[23] = Postemergence, 125 g ai/ha, scale 0 to 100 (0 no effect, 100 complete control)
[24] = Postemergence, 31 g ai/ha, scale 0 to 100 (0 no effect, 100 complete control)

O=C1CCCC(O)=C1C(=O)c1cnc(-c2cccnc2)n(-c2ccccc2)c1=O [Compound 113, 5-[(2-hydroxy-6-oxo-1-cyclohexen-1-yl)carbonyl]-3-phenyl-2-(3-pyridinyl)-4(3H)-pyrimidone]
65: Plant response rating, Field Bindweed [1, 17] | Plant response rating, Field Bindweed [1, 18] | Plant response rating, Field Bindweed [1, 21] | Plant response rating, Johnsongrass [2, 18] | Plant response rating, Crabgrass, Naked [3, 17] | Plant response rating, Itchgrass [5, 18] | Plant response rating, Barnyardgrass [6, 16] | Plant response rating, Bermudagrass [9, 16] | Plant response rating, Guineagrass [11, 20]
100: Plant response rating, Crabgrass, Naked [3, 22] | Plant response rating, Sowthistle [7, 23] | Plant response rating, Sowthistle [7, 18] | Plant response rating, Sowthistle [7, 22] | Plant response rating, Guineagrass [11, 21] | Plant response rating, Guineagrass [11, 22] | Plant response rating, Groundsel ([13]; 125 g ai/ha, scale 0 to 100 (0 no effect, 100 complete control)) | Plant response rating, Groundsel ([13]; 62 g ai/ha, scale 0 to 100 (0 no effect, 100 complete control))
90: Plant response rating, Field Bindweed [1, 22] | Plant response rating, Crabgrass, Naked [3, 21] | Plant response rating, Sowthistle [7, 16] | Plant response rating, Mallow [10, 22] | Plant response rating, Groundsel ([13]; 16 g ai/ha, scale 0 to 100) | Plant response rating, Groundsel ([13]; 31 g ai/ha, scale 0 to 100) | Plant response rating, Foxtail, Green [14, 23] | Plant response rating, Prickly Sida [15, 22]
10: Plant response rating, Johnsongrass [2, 21] | Plant response rating, Johnsongrass [2, 22] | Plant response rating, Nutsedge, Purple [4, 17] | Plant response rating, Nutsedge, Purple [4, 20] | Plant response rating, Itchgrass [5, 17]
50: Plant response rating, Field Bindweed [1, 16] | Plant response rating, Crabgrass, Naked [3, 16] | Plant response rating, Nutsedge, Purple [4, 23] | Plant response rating, Sowthistle [7, 19] | Plant response rating, Spanishneedles [8, 18] | Plant response rating, Bermudagrass [9, 19] | Plant response rating, Bermudagrass [9, 20] | Plant response rating, Guineagrass [11, 18] | Plant response rating, Ryegrass, Italian [12, 23] | Plant response rating, Prickly Sida [15, 16]
35: Plant response rating, Nutsedge, Purple [4, 18] | Plant response rating, Barnyardgrass [6, 22] | Plant response rating, Spanishneedles [8, 16] | Plant response rating, Spanishneedles [8, 17] | Plant response rating, Ryegrass, Italian [12, 18] | Plant response rating, Prickly Sida [15, 20]
40: Plant response rating, Johnsongrass [2, 16] | Plant response rating, Johnsongrass [2, 17]
0: Plant response rating, Field Bindweed [1, 19] | Plant response rating, Johnsongrass [2, 19] | Plant response rating, Johnsongrass [2, 20] | Plant response rating, Crabgrass, Naked [3, 19] | Plant response rating, Crabgrass, Naked [3, 20] | Plant response rating, Nutsedge, Purple [4, 16] | Plant response rating, Nutsedge, Purple [4, 19] | Plant response rating, Itchgrass [5, 16] | Plant response rating, Itchgrass [5, 19] | Plant response rating, Itchgrass [5, 20] | Plant response rating, Itchgrass [5, 21] | Plant response rating, Itchgrass [5, 22] | Plant response rating, Barnyardgrass [6, 19] | Plant response rating, Barnyardgrass [6, 20] | Plant response rating, Barnyardgrass [6, 21] | Plant response rating, Spanishneedles [8, 19] | Plant response rating, Spanishneedles [8, 20] | Plant response rating, Mallow [10, 16] | Plant response rating, Mallow [10, 17] | Plant response rating, Mallow [10, 18] | Plant response rating, Mallow [10, 19] | Plant response rating, Guineagrass [11, 19] | Plant response rating, Ryegrass, Italian [12, 16] | Plant response rating, Ryegrass, Italian [12, 19] | Plant response rating, Ryegrass, Italian [12, 20] | Plant response rating, Ryegrass, Italian ([12]; Preemergence, rate not given, scale 0 to 100, 0 no effect, 100 complete control) | Plant response rating, Foxtail, Green [14, 19] | Plant response rating, Foxtail, Green [14, 20] | Plant response rating, Foxtail, Green [14, 21] | Plant response rating, Prickly Sida [15, 19]
85: Plant response rating, Bermudagrass [9, 22]
20: Plant response rating, Field Bindweed [1, 20] | Plant response rating, Nutsedge, Purple [4, 21] | Plant response rating, Mallow [10, 23] | Plant response rating, Ryegrass, Italian [12, 17] | Plant response rating, Ryegrass, Italian [12, 22] | Plant response rating, Foxtail, Green [14, 22]
25: Plant response rating, Guineagrass [11, 16] | Plant response rating, Guineagrass [11, 17] | Plant response rating, Foxtail, Green [14, 16]
95: Plant response rating, Sowthistle [7, 17] | Plant response rating, Spanishneedles [8, 22]
60: Plant response rating, Spanishneedles [8, 23] | Plant response rating, Foxtail, Green [14, 17] | Plant response rating, Prickly Sida [15, 17]
80: Plant response rating, Nutsedge, Purple [4, 22] | Plant response rating, Barnyardgrass [6, 23] | Plant response rating, Barnyardgrass [6, 18] | Plant response rating, Bermudagrass [9, 23] | Plant response rating, Bermudagrass [9, 18]
70: Plant response rating, Crabgrass, Naked [3, 18] | Plant response rating, Itchgrass [5, 23] | Plant response rating, Bermudagrass [9, 24] | Plant response rating, Bermudagrass [9, 21] | Plant response rating, Guineagrass [11, 23] | Plant response rating, Foxtail, Green [14, 18] | Plant response rating, Prickly Sida [15, 23] | Plant response rating, Prickly Sida [15, 18] | Plant response rating, Prickly Sida [15, 21]
75: Plant response rating, Johnsongrass [2, 23] | Plant response rating, Crabgrass, Naked [3, 23] | Plant response rating, Barnyardgrass [6, 24] | Plant response rating, Sowthistle [7, 20]
5: Plant response rating, Mallow [10, 20] | Plant response rating, Mallow [10, 21]
